Bounds are passed on as bounds.

The test system of this assay is Ba/F3 cells expressing EGFR Del19/C797S (EGFR DC). The assay can be described thus: Proliferation inhibitory activity, Ba/F3 cells expressing EGFR Del19/C797S (CellTiter-Glo). In kind it is cell-based. The note with it: Mus musculus, BaF3, 72 hours of compound treatment. In short, it runs like this: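 Viability after 72 h of compound exposure was measured by luminescence (CellTiter-Glo) in Ba/F3 lines transduced with mutant EGFR. Final concentrations spanned 0.2 nM–5 μM over 12 threefold steps. Growth relative to untreated control gave GI50 values; each test was run three times.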
Take `CN1CCC(n2cc(-c3ccc(Nc4cc(N5OCC[C@@H]5c5cc(F)cc(F)c5)ncn4)c4c3CCO4)cn2)CC1` [Example 160, (R)-6-(3-(3,5-difluorophenyl)isoxazolidin-2-yl)-N-(4-(1-(1-methylpiperidin-4-yl)-1H-pyrazol-4-yl)-2,3-dihydrobenzofuran-7-yl)pyrimidin-4-amine]: the concentration for 50% growth inhibition (GI50) was in the range of 50 to 500 nM.

For the molecule `CCC(=O)Nc1cc(Nc2cc(N3OCC[C@@H]3c3cc(F)cc(F)c3)ncn2)c(OC)cc1N1CCC(N2CCN(C3CC3)CC2)CC1` [Example 161, (R)—N-(2-(4-(4-cyclopropylpiperazin-1-yl)piperidin-1-yl)-5-((6-(3-(3,5-difluorophenyl)isoxazolidin-2-yl)pyrimidin-4-yl)amino)-4-methoxyphenyl)propionamide], the 50% growth inhibitory concentration (GI50) was < 50 nM.

Consider `CN1CCN(c2c(-c3cnn(C)c3)cc(Nc3cc(N4OCC[C@@H]4c4ccccc4)ncn3)c3c2CCO3)CC1` [Example 162, (R)—N-(5-(1-methyl-1H-pyrazol-4-yl)-4-(4-methylpiperazin-1-yl)-2,3-dihydrobenzofuran-7-yl)-6-(3-phenylisoxazolidin-2-yl)pyrimidin-4-amine], for which the GI50 is < 50 nM.

Take `CCC(=O)Nc1cc(Nc2cc(N3OCC[C@@H]3c3cccs3)ncn2)c(OC)cc1N1CCC(N2CCN(C3CC3)CC2)CC1` [Example 163, (R)—N-(2-(4-(4-cyclopropylpiperazin-1-yl)piperidin-1-yl)-4-methoxy-5-((6-(3-(thiophene-2-yl)isoxazolidin-2-yl)pyrimidin-4-yl)amino)phenyl)propionamide]: the concentration for 50% growth inhibition (GI50) was < 50 nM.

`CN1CCN(C2CCN(c3cc(OCC(F)(F)F)c(Nc4cc(N5OCC[C@@H]5c5ccccc5)ncn4)cc3-c3cnn(C)c3)CC2)CC1` [Example 164, (R)—N-(5-(1-methyl-1H-pyrazol-4-yl)-4-(4-(4-methylpiperazin-1-yl)piperidin-1-yl)-2-(2,2,2-trifluoroethoxy)phenyl)-6-(3-phenylisoxazolidin-2-yl)pyrimidin-4-amine]: the GI50 is < 50 nM.

For `Cn1cc(-c2cc(Nc3cc(N4OCC[C@@H]4c4ccccc4)ncn3)c(OCC(F)(F)F)cc2N2CCC(N3CCOCC3)CC2)cn1` [Example 165, (R)—N-(5-(1-methyl-1H-pyrazol-4-yl)-4-(4-morpholinopiperidin-1-yl)-2-(2,2,2-trifluoroethoxy)phenyl)-6-(3-phenylisoxazolidin-2-yl)pyrimidin-4-amine], the GI50 was < 50 nM.

Take `CN1CCN(c2cc(OCC(F)(F)F)c(Nc3cc(N4OCC[C@@H]4c4ccccc4)ncn3)cc2-c2cnn(C)c2)CC1` [Example 166, (R)—N-(5-(1-methyl-1H-pyrazol-4-yl)-4-(4-methylpiperazin-1-yl)-2-(2,2,2-trifluoroethoxy)phenyl)-6-(3-phenylisoxazolidin-2-yl)pyrimidin-4-amine]: the GI50 is < 50 nM.

With `Cn1cc(-c2cc(Nc3cc(N4OCC[C@@H]4c4ccccc4)ncn3)c(OCC(F)(F)F)cc2N2CCOCC2)cn1` [Example 167, (R)—N-(5-(1-methyl-1H-pyrazol-4-yl)-4-morpholino-2-(2,2,2-trifluoroethoxy)phenyl)-6-(3-phenylisoxazolidin-2-yl)pyrimidin-4-amine], the GI50 is < 50 nM.

As to `COc1cc(N2CCC(N3CCN(C)CC3)CC2)ccc1Nc1cc(N2OCC[C@@H]2c2cncc(F)c2)ncn1` [Example 169, (R)-6-(3-(5-fluoropyridin-3-yl)isoxazolidin-2-yl)-N-(2-methoxy-4-(4-(4-methylpiperazin-1-yl)piperidin-1-yl)phenyl)pyrimidin-4-amine], the GI50 lay within 50 to 500 nM.

`COc1cc(N2CCC(N3CCN(C)CC3)CC2)ccc1Nc1cc(N2OCC[C@@H]2c2cc(F)cc(C#N)c2)ncn1` [Example 170, (R)-3-fluoro-5-(2-(6-((2-methoxy-4-(4-(4-methylpiperazin-1-yl)piperidin-1-yl)phenyl)amino)pyrimidin-4-yl)isoxazolidin-3-yl)benzonitrile]: the GI50 was in the range of 50 to 500 nM.

In the case of `Fc1cccc([C@H]2CCON2c2cc(Nc3ccc([C@H]4CCON4)cc3)ncn2)c1F` [Example 174, 6-((R)-3-(2,3-difluorophenyl)isoxazolidin-2-yl)-N-(4-((R)-isoxazolidin-3-yl)phenyl)pyrimidin-4-amine], the concentration for 50% growth inhibition (GI50) is 50 to 500 nM.

`CN1OCC[C@H]1c1ccc(Nc2cc(N3OCC[C@@H]3c3cccc(F)c3F)ncn2)cc1` [Example 176, 6-((R)-3-(2,3-difluorophenyl)isoxazolidin-2-yl)-N-(4-((S)-2-methylisoxazolidin-3-yl)phenyl)pyrimidin-4-amine]: the GI50 was 50 to 500 nM.

On to `Fc1cccc([C@H]2CCON2c2cc(Nc3ccc([C@@H]4CCON4)cc3)ncn2)c1F` [Example 177, 6-((R)-3-(2,3-difluorophenyl)isoxazolidin-2-yl)-N-(4-((S)-isoxazolidin-3-yl)phenyl)pyrimidin-4-amine], for which the GI50 is 50 to 500 nM.

For `CN1CCN(c2ccc(Nc3cc(N4OCC[C@@H]4c4cncc(Cl)c4)ncn3)cc2)CC1` [Example 180, (R)-6-(3-(5-chloropyridin-3-yl)isoxazolidin-2-yl)-N-(4-(4-methylpiperazin-1-yl)phenyl)pyrimidin-4-amine], the 50% growth inhibitory concentration (GI50) was in the range of 50 to 500 nM.

As for `COc1cc(N2CCC(N3CCN(C)CC3)CC2)ccc1Nc1cc(N2OCC[C@@H]2c2cncc(Cl)c2)ncn1` [Example 182, (R)-6-(3-(5-chloropyridin-3-yl)isoxazolidin-2-yl)-N-(2-methoxy-4-(4-(4-methylpiperazin-1-yl)piperidin-1-yl)phenyl)pyrimidin-4-amine], the concentration for 50% growth inhibition (GI50) is < 50 nM.

On to `COc1cc(N2CCC(N3CCN(C)CC3)CC2)ccc1Nc1cc(N2OCC[C@@H]2c2cccc(C(F)F)c2)ncn1` [Example 184, (R)-6-(3-(3-(difluoromethyl)phenyl)isoxazolidin-2-yl)-N-(2-methoxy-4-(4-(4-methylpiperazin-1-yl)piperidin-1-yl)phenyl)pyrimidin-4-amine], for which the GI50 lay within 50 to 500 nM.

As for `COc1cc2c(cc1Nc1cc(N3OCC[C@@H]3c3cccc(F)c3F)ncn1)C(=O)N(C)C2` [Example 193, (R)-6-((6-(3-(2,3-difluorophenyl)isoxazolidin-2-yl)pyrimidin-4-yl)amino)-5-methoxy-2-methylisoindolin-1-one], the concentration for 50% growth inhibition (GI50) was 50 to 500 nM.

With `COc1cc(N2CCC3(CC2)CCN(C(C)(C)CF)CC3)c(-c2cnn(C)c2)cc1Nc1cc(N2OCC[C@@H]2c2cccc(F)c2F)ncn1` [Example 195, (R)-6-(3-(2,3-difluorophenyl)isoxazolidin-2-yl)-N-(4-(9-(1-fluoro-2-methylpropan-2-yl)-3,9-diazaspiro[5.5]undecan-3-yl)-2-methoxy-5-(1-methyl-1H-pyrazol-4-yl)phenyl)pyrimidin-4-amine], the GI50 is < 50 nM.

Take `C=Cc1cc(Nc2cc(N3OCC[C@@H]3c3cccc(F)c3F)ncn2)c(OC)cc1N1CCN(C)CC1` [Example 199, (R)-6-(3-(2,3-difluorophenyl)isoxazolidin-2-yl)-N-(2-methoxy-4-(4-methylpiperazin-1-yl)-5-vinylphenyl)pyrimidin-4-amine]: the concentration for 50% growth inhibition (GI50) is < 50 nM.

Consider `C#Cc1cc(Nc2cc(N3OCC[C@@H]3c3cccc(F)c3F)ncn2)c(OC)cc1N1CCN(C)CC1` [Example 200, (R)-6-(3-(2,3-difluorophenyl)isoxazolidin-2-yl)-N-(5-ethynyl-2-methoxy-4-(4-methylpiperazine-1-yl)phenyl)pyrimidin-4-amine], for which the GI50 was < 50 nM.

With `COc1cc(N2CCN(C)CC2)c(-c2cnn(C)c2)nc1Nc1cc(N2OCC[C@@H]2c2cccc(F)c2F)ncn1` [Example 201, (R)-6-(3-(2,3-difluorophenyl)isoxazolidin-2-yl)-N-(3-methoxy-6-(1-methyl-1H-pyrazol-4-yl)-5-(4-methylpiperazin-1-yl)pyridin-2-yl)pyrimidin-4-amine], the concentration for 50% growth inhibition (GI50) is < 50 nM.

For `COc1nc(N2CCN(C)CC2)c(-c2cnn(C)c2)cc1Nc1cc(N2OCC[C@@H]2c2cccc(F)c2F)ncn1` [Example 202, (R)-6-(3-(2,3-difluorophenyl)isoxazolidin-2-yl)-N-(2-methoxy-5-(1-methyl-1H-pyrazol-4-yl)-6-(4-methylpiperazin-1-yl)pyridin-3-yl)pyrimidin-4-amine], the 50% growth inhibitory concentration (GI50) was < 50 nM.

Regarding `C[C@@H]1[C@@H](CS(C)(=O)=O)CN1c1cc(Nc2cc(N3OCC[C@@H]3c3cccc(F)c3F)ncn2)cc(-c2cnn(C)c2)c1N1CCOCC1` [Example 203, 6-((R)-3-(2,3-difluorophenyl)isoxazolidin-2-yl)-N-(3-(1-methyl-1H-pyrazol-4-yl)-5-((2R,3S)-2-methyl-3-((methylsulfonyl)methyl)azetidin-1-yl)-4-morpholinophenyl)pyrimidin-4-amine], the concentration for 50% growth inhibition (GI50) is < 50 nM.

Take `C=CCN1CCN(C2CCN(c3ccc(Nc4cc(N5OCC[C@@H]5c5cccc(F)c5F)ncn4)c(OC)c3)CC2)CC1` [Example 206, (R)—N-(4-(4-(4-allylpiperazin-1-yl)piperidin-1-yl)-2-methoxyphenyl)-6-(3-(2,3-difluorophenyl)isoxazolidin-2-yl)pyrimidin-4-amine]: the 50% growth inhibitory concentration (GI50) was < 50 nM.

On to `CCN1CCN(C2CCN(c3ccc(Nc4cc(N5OCC[C@@H]5c5cccc(F)c5F)ncn4)c(OC)c3)CC2)CC1` [Example 207, (R)-6-(3-(2,3-difluorophenyl)isoxazolidin-2-yl)-N-(4-(4-(4-ethylpiperazin-1-yl)piperidin-1-yl)-2-methoxyphenyl)pyrimidin-4-amine], for which the concentration for 50% growth inhibition (GI50) is < 50 nM.

With `COc1cc(N2CCC(N3CCN(C4CCC4)CC3)CC2)ccc1Nc1cc(N2OCC[C@@H]2c2cccc(F)c2F)ncn1` [Example 208, (R)—N-(4-(4-(4-cyclobutylpiperazin-1-yl)piperidin-1-yl)-2-methoxyphenyl)-6-(3-(2,3-difluorophenyl)isoxazolidin-2-yl)pyrimidin-4-amine], the 50% growth inhibitory concentration (GI50) is < 50 nM.

As to `COc1cc(N2CCC(N3CCN(C4COC4)CC3)CC2)ccc1Nc1cc(N2OCC[C@@H]2c2cccc(F)c2F)ncn1` [Example 209, (R)-6-(3-(2,3-difluorophenyl)isoxazolidin-2-yl)-N-(2-methoxy-4-(4-(4-(oxetan-3-yl)piperazin-1-yl)piperidin-1-yl)phenyl)pyrimidin-4-amine], the GI50 was < 50 nM.

The term GI50 denotes the concentration at which growth is held to half of that of the control.

The values are drawn from patent US12534457B2, “Heteroaryl derivative compounds, and uses thereof” (Voronoi Inc., priority 2021, dated 2026).
